Assay results published in US11702404B2, “GLP-1R modulating compounds” (priority 2019, dated 2023).
Read-outs that look alike come from different tables or passages of the source.

What was measured:
GLP-1R = GLP-1R (Homo sapiens, UniProt P43220); assay: GLP-1R activation: cAMP increase in CHO cells stably expressing GLP-1R; type: cell-based
[1] = Microsomal stability, human liver microsomes (predicted hepatic clearance); settings: predicted from in vitro microsomal stability data
[2] = cAMP increase, CHO cells stably expressing GLP-1R, 10 point dose response, 30 minutes incubation, read-out: EC50

Chain of GLP-1R (P43220 24-463): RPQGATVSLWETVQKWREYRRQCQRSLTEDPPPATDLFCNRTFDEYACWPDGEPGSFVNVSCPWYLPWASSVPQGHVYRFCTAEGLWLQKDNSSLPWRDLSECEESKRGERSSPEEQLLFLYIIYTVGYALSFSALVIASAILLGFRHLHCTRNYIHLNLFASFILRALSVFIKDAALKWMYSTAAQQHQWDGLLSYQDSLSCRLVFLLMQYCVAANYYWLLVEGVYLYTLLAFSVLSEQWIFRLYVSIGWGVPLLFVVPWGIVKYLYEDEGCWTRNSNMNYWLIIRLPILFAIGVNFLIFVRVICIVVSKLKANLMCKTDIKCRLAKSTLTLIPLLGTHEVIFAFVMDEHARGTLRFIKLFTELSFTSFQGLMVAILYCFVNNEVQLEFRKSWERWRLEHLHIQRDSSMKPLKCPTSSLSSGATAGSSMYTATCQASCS

| SMILES | EC50 (GLP-1R; [2]) [nM] | Predicted Hepatic Clearance (Pred. Cl.) [1] [L/h/kg] | EC50 (GLP-1R; EC50 (nM)) [nM] |
| --- | --- | --- | --- |
| COCCn1c(Cc2c(F)cc(-c3cccnc3OCc3cc(Cl)ccc3F)cc2F)nc2ccc(C(=O)O)cc21 [Example 408, 2-(4-(2-((5-chloro-2-fluorobenzyl)oxy)pyridin-3-yl)-2,6-difluorobenzyl)-1-(2-methoxyethyl)-1H-benzo[d]imidazole-6-carboxylic acid] | ≥ 1000 | 0.605 | – |
| COCCn1c(Cc2ccc(-c3cccc(OCc4ccc(C#N)cc4F)n3)cc2CF)nc2ccc(C(=O)O)cc21 [Example 410, 2-(4-(6-((4-cyano-2-fluorobenzyl)oxy)pyridin-2-yl)-2-(fluoromethyl)benzyl)-1-(2-methoxyethyl)-1H-benzo[d]imidazole-carboxylic acid] | 20.8 | 0.89 | – |
| COCCn1c(Cc2ccc(-c3cccc(OCc4ccc(C#N)cc4F)n3)cc2COC)nc2ccc(C(=O)O)cc21 [Example 411, 2-(4-(6-((4-cyano-2-fluorobenzyl)oxy)pyridin-2-yl)-2-(methoxymethyl)benzyl)-1-(2-methoxyethyl)-1H-benzo[d]imidazole-6-carboxylic acid] | – | 0.56 | 140 |
| COCCn1c(Cc2ccc(-c3cccc(OCc4ccc(C#N)cc4F)n3)cc2C#CC(C)(C)O)nc2ccc(C(=O)O)cc21 [Example 419, 2-(4-(6-((4-cyano-2-fluorobenzyl)oxy)pyridin-2-yl)-2-(3-hydroxy-3-methylbut-1-yn-1-yl)benzyl)-1-(2-methoxyethyl)-1H-benzo[d]imidazole-6-carboxylic acid] | 20.7 | 0.44 | – |
| N#Cc1ccc(COc2nccc(-c3cc(F)c(Cc4nc5c(F)cc(C(=O)O)cc5n4C[C@@H]4CCO4)cc3F)n2)c(F)c1 [Example 420, (S)-2-(4-(2-((4-cyano-2-fluorobenzyl)oxy)pyrimidin-4-yl)-2,5-difluorobenzyl)-4-fluoro-1-(oxetan-2-ylmethyl)-1H-benzo[d]imidazole-6-carboxylic acid] | 0.05 | 0.21 | – |
| N#Cc1ccc(COc2cccc(-c3ccn(Cc4nc5ccc(C(=O)O)cc5n4CC4(n5ccnn5)CC4)c(=O)c3)n2)c(F)c1 [Example 421, 1-((1-(1H-1,2,3-triazol-1-yl)cyclopropyl)methyl)-2-((6-((4-cyano-2-fluorobenzyl)oxy)-2′-oxo-[2,4′-bipyridin]-1′(2′H)-yl)methyl)-1H-benzo[d]imidazole-6-carboxylic acid] | 327 | <0.11 | – |
| N#CCC1(Cn2c(Cn3ccc(-c4cccc(OCc5ccc(C#N)cc5F)n4)cc3=O)nc3ccc(C(=O)O)cc32)CC1 [Example 422, 2-((6-((4-cyano-2-fluorobenzyl)oxy)-2′-oxo-[2,4′-bipyridin]-1′(2′H)-yl)methyl)-1-((1-(cyanomethyl)cyclopropyl)methyl)-1H-benzo[d]imidazole-6-carboxylic acid] | 0.87 | 0.16 | – |
| N#Cc1ccc(COc2cccc(-c3ccn(Cc4nc5ccc(C(=O)O)cc5n4C[C@@H]4CCO4)c(=O)c3)n2)c(F)c1 [Example 423, (S)-2-((6-((4-cyano-2-fluorobenzyl)oxy)-2′-oxo-[2,4′-bipyridin]-1′(2′H)-yl)methyl)-1-(oxetan-2-ylmethyl)-1H-benzo[d]imidazole-6-carboxylic acid] | 4.12 | <0.11 | – |
| N#Cc1ccc(COc2cccc(-c3ccn(Cc4nc5ccc(C(=O)O)cc5n4CC4(CF)CC4)c(=O)c3)n2)c(F)c1 [Example 424, 2-((6-((4-cyano-2-fluorobenzyl)oxy)-2′-oxo-[2,4′-bipyridin]-1′(2′H)-yl)methyl)-1-((1-(fluoromethyl)cyclopropyl)methyl)-1H-benzo[d]imidazole-6-carboxylic acid] | 15.7 | 0.14 | – |
| COCCn1c(Cc2ccc(-c3cccc(OCc4ccc(C#N)cc4F)n3)cc2CO)nc2ccc(C(=O)O)cc21 [Example 425, 2-(4-(6-((4-cyano-2-fluorobenzyl)oxy)pyiridn-2-yl)-2-(hydroxymethyl)benzyl)-1-(2-methoxyethyl)-1H-benzo[d]imidazole-6-carboxylic acid] | 4.29 | 0.4 | – |

The next lines start with results.

| EC50 (GLP-1R; [2]) [nM] | Predicted Hepatic Clearance (Pred. Cl.) [1] [L/h/kg] | SMILES | EC50 (GLP-1R; EC50 (nM)) [nM] |
| --- | --- | --- | --- |
| 0.37 | <0.11 | COc1cc(C#N)ccc1COc1cccc(-c2cc(F)c(Cc3nc4ccc(C(=O)O)cc4n3CC3(CF)CC3)cc2F)n1 [Example 409, 2-(4-(6-((4-cyano-2-methoxybenzyl)oxy)pyridin-2-yl)-2,5-difluorobenzyl)-1-((1-(fluoromethyl)cyclopropyl)methyl)-1H-benzo[d]imidazole-6-carboxylic acid] | – |
| 0.33 | <0.11 | N#Cc1ccc(COc2nccc(-c3cc(F)c(Cc4nc5c(F)cc(C(=O)O)cc5n4CC4(CF)CC4)cc3F)n2)c(F)c1 [Example 412, 2-(4-(2-((4-cyano-2-fluorobenzyl)oxy)pyrimidin-4-yl)-2,5-difluorobenzyl)-4-fluoro-1-((1-(fluoromethyl)cyclopropyl)methyl)-1H-benzo[d]imidazole-6-carboxylic acid] | – |
| 0.07 | <0.11 | O=C(O)c1ccc2nc(Cc3cc(F)c(-c4ccnc(OCc5ccc(Cl)cc5F)n4)cc3F)n(C[C@@H]3CCO3)c2c1 [Example 413, (S)-2-(4-(2-((4-chloro-2-fluorobenzyl)oxy)pyrimidin-4-yl)-2,5-difluorobenzyl)-1-(oxetan-2-ylmethyl)-1H-benzo[d]imidazole-6-carboxylic acid] | – |
| 0.44 | 0.7 | COc1cc(Cl)ccc1COc1nccc(-c2cc(F)c(Cc3nc4ccc(C(=O)O)cc4n3CC3(CF)CC3)cc2F)n1 [Example 414, 2-(4-(2-((4-chloro-2-methoxybenzyl)oxy)pyrimidin-4-yl)-2,5-difluorobenzyl)-1-((1-(fluoromethyl)cyclopropyl)methyl)-1H-benzo[d]imidazole-6-carboxylic acid] | – |
| 0.15 | 0.26 | N#Cc1ccc(COc2nccc(-c3cc(F)c(Cc4nc5ccc(C(=O)O)cc5n4C[C@@H]4CCO4)cc3F)n2)c(F)c1 [Example 415, (S)-2-(4-(2-((4-cyano-2-fluorobenzyl)oxy)pyrimidin-4-yl)-2,5-difluorobenzyl)-1-(oxetan-2-ylmethyl)-1H-benzo[d]imidazole-6-carboxylic acid] | – |
| 0.09 | 0.25 | N#CCC1(Cn2c(Cc3cc(F)c(-c4cccc(OCc5ccc(Cl)cc5F)n4)cc3F)nc3ccc(C(=O)O)cc32)CC1 [Example 416, 2-(4-(6-((4-chloro-2-fluorobenzyl)oxy)pyridin-2-yl)-2,5-difluorobenzyl)-1-((1-(cyanomethyl)cyclopropyl)methyl)-1H-benzo[d]imidazole-6-carboxylic acid] | – |
| 0.1 | 0.76 | COc1cc(C#N)ccc1COc1nccc(-c2cc(F)c(Cc3nc4ccc(C(=O)O)cc4n3CC3(CC#N)CC3)cc2F)n1 [Example 417, 2-(4-(2-((4-cyano-2-methoxybenzyl)oxy)pyrimidin-4-yl)-2,5-difluorobenzyl)-1-((1-(cyanomethyl)cyclopropyl)methyl)-1H-benzo[d]imidazole-6-carboxylic acid] | – |
| 2.34 | 0.276 | COCCn1c(Cc2cc(F)c(-c3cccc(OCc4ccc(C#N)cc4F)n3)cc2F)nc2ccc(C(=O)O)cc21 [Example 426, 2-(4-(6-((4-cyano-2-fluorobenzyl)oxy)pyridin-2-yl)-2,5-difluorobenzyl)-1-(2-methoxyethyl)-1H-benzo[d]imidazole-6-carboxylic acid] | – |
| 0.06 | <0.11 | COc1cc(C#N)ccc1COc1cccc(-c2cc(F)c(Cc3nc4ccc(C(=O)O)cc4n3CC3(CC#N)CC3)cc2F)n1 [Example 427, 2-(4-(6-((4-cyano-2-methoxybenzyl)oxy)pyridin-2-yl)-2,5-difluorobenzyl)-1-((1-(cyanomethyl)cyclopropyl)methyl)-1H-benzo[d]imidazole-6-carboxylic acid] | – |
| 0.13 | 0.535 | N#CCC1(Cn2c(Cc3cc(F)c(-c4cccc(OCc5ccc(C#N)cc5F)n4)cc3F)nc3ccc(C(=O)O)cc32)CC1 [Example 428, 2-(4-(6-((4-cyano-2-fluorobenzyl)oxy)pyridin-2-yl)-2,5-difluorobenzyl)-1-((1-(cyanomethyl)cyclopropyl)methyl)-1H-benzo[d]imidazole-6-carboxylic acid] | – |
| 0.61 | 0.23 | N#Cc1ccc(COc2cccc(-c3cc(F)c(Cc4nc5ccc(C(=O)O)cc5n4CC4(CF)CC4)cc3F)n2)c(F)c1 [Example 429, 2-(4-(6-((4-cyano-2-fluorobenzyl)oxy)pyridin-2-yl)-2,5-difluorobenzyl)-1-((1-(fluoromethyl)cyclopropyl)methyl)-1H-benzo[d]imidazole-6-carboxylic acid] | – |
| 0.67 | <0.11 | COc1cc(C#N)ccc1COc1nccc(-c2cc(F)c(Cc3nc4ccc(C(=O)O)cc4n3CC3(CF)CC3)cc2F)n1 [Example 430, 2-(4-(2-((4-cyano-2-methoxybenzyl)oxy)pyrimidin-4-yl)-2,5-difluorobenzyl)-1-((1-(fluoromethyl)cyclopropyl)methyl)-1H-benzo[d]imidazole-6-carboxylic acid] | – |
| 0.73 | 0.23 | N#Cc1ccc(COc2nccc(-c3cc(F)c(Cc4nc5ccc(C(=O)O)cc5n4CC4(CF)CC4)cc3F)n2)c(F)c1 [Example 431, 2-(4-(2-((4-cyano-2-fluorobenzyl)oxy)pyrimidin-4-yl)-2,5-difluorobenzyl)-1-((1-(fluoromethyl)cyclopropyl)methyl)-1H-benzo[d]imidazole-6-carboxylic acid] | – |
